Series [1] deals with Arabidopsis thaliana expressing Rhodotorula gracilis D-amino acid oxidase (dao1). Kind of series: Growth of plants expressing D-amino acid oxidase on D-amino acid media in sterile agar culture. The series is classed as in vivo. The source says: Transgenic plants expressing D-amino acid oxidase were constructed essentially in the same way as the dsdA plants described above, with the following modifications: The dao1 gene (EC: 1.4.3.3 (SEQ ID NO: 6): NCBIU60066 (SEQ ID NO: 5)) from the yeast Rhodotorula gracilis (Rhodosporidium toruloides) was cloned with PCR with a cDNA library prepared from yeast grown on D-alanine containing medium to induce expression of the target gene, as a template. PCR primers were 5′-[…] (SEQ ID NO: 3) and 5′-[…] (SEQ ID NO: 4).
PCR was also performed with another set of primers, with one primer flanking the 5′ end of the open reading frame as set out above and a 3′ primer excluding the last […] nucleotides. The last nine nucleotides encode the signal peptide SKL, which guides the protein to the peroxisome sub-cellular organelle.
The resulting amplified sequences encode proteins which have the same amino acid sequence but which differ in the respect of their location in the cell. The truncated polypeptide, without the signal peptide, is expressed in the cytosol, while the full-length polypeptide is expressed in the peroxisome.
Construction of Arabidopsis thaliana plants expressing two variants of Rhodotorula gracilis D-amino acid oxidase were made as described above.

Series [2] concerns wild type Arabidopsis. In words: Growth of wild type plants on D-Asn or D-ile in sterile agar culture. The series is classed as in vivo, Arabidopsis thaliana.
Series [3] concerns transgenic Arabidopsis thaliana expressing E. coli D-serine ammonia-lyase (dsdA). In words: Growth and N content of transgenic plants expressing dsdA on D-serine media. The format is in vivo. The source says:
The E. coli gene dsdA (D-serine dehydratase (D-serine deaminase) [EC:4.3.1.18 (SEQ ID NO: 8)] NCBI accession number J01603 (SEQ ID NO: 7)) was amplified by PCR using primers 5′-[…] (SEQ ID NO: 1) and 5′-[…] (SEQ ID NO: 2). The PCR product was sub-cloned into pT-easy (Promega) and sequenced with DYEnamics cycle sequencing kit, (Amersham Pharmacia biotech). Alignment analysis with the database sequence confirmed successful full length cloning of dsdA. The clone was subsequently ligated into the BamH1 site of the CaMV 35S expression cassette of the binary vector pPCV702Km, which is a disarmed Ti-plasmid of Agrobacterium tumefaciens, to generate the vector pPCV702:dsdA. Restriction analysis of this vector with endonuclease confirmed orientation of insertion.
A. thaliana, ecotype Col-0, plants were transformed with Agrobacterium tumefaciens strain (GV3101:pMP90 RK) through vacuum infiltration (Clough, S. J. & Bent, A. F. Plant Journal. 16, 735-743 (1998)). Transformants were selected on kanamycin containing plates, and molecularly confirmed using northern blots. All analyses were performed using lines homozygous for the transgenic trait.
(§1) A. thaliana seeds from non-transformed plants and D-Serine ammonia-lyase transformed plants were surface sterilised with 70% ethanol and 0.1% Tween 80 for 10 minutes and rinsed briefly in 95% ethanol. 10 seeds were sown in each plate and the plates where thereafter sealed with gas permeable tape. The growth medium was half-strength MS (Murashige, T. & Skoog, F. Physiol Plant 15, 310-313 (1962)) (with 0.5% w/v sucrose and 0.8% w/v agar) with nitrogen either excluded or included as 3 mM nitrate. Filter sterilised D-serine was added to the medium after autoclaving. Plants were grown for 14 days after germination with a 16 h photoperiod at 24° C. Plants were extracted from the plates, washed three times in 0.5 mM CaCl2 and thereafter dried at 40° C. for 48 hours before dry weight measurements. The N content was determined on dried plants using an elemental analyser (PerkinElmer 2400 CHN). Biomass and nitrogen content were measured on a per plate basis and there were 10 plants per plate. Six independent transgenic lines were evaluated for their capacity to grow on D-serine and no substantial difference was noticed among the lines, although dsdA transcript levels varied substantially according to northern blot analyses.
Transgenic Arabidopsis thaliana plants expressing the gene encoding D-serine dehydratase were grown sterile alongside wild type plants on agar for 20 days on standard MS medium supplemented with varying concentrations of D-serine as the sole N source (30 mM, 3 mM, 0.3 mM) along with a control lacking any nitrogen.

The subject of series [4] is wild-type Arabidopsis thaliana. Kind of series: Growth of wild-type plants on sterile agar supplied with D-serine. The format is in vivo. Particulars: for toxicity to wild-type plants: FIG. 3, FIG. 5. How it is done:
as §1, with “analyses. Seeds from Solanum esculentum, Hordeum vulgare, Zea mays, Populus tremuloides, Nicotiana tabacum and Arabidopsis thaliana were surface sterilised and grown for two to three weeks on agar media identical to the nitrate free media described above and amended with 0, 0.3, 3 and 30 mM D-serine. […] For A. thaliana, clear growth inhibition is observed at a concentration of 0.3 mM D-serine in the growth medium and total growth inhibition occurs at 3 mM (FIG. 3). Transgenic Arabidopsis thaliana plants expressing the gene encoding D-serine dehydratase were grown sterile alongside wild type plants on agar for 20 days on standard MS medium supplemented with varying concentrations of D-serine as the sole N source (30 mM, 3 mM, 0.3 mM) along with a control lacking any nitrogen.” for “analyses.”

Series [5] deals with Nicotiana tabacum. Kind of series: Growth of wild-type seedlings on nitrate free agar media amended with D-serine. The conditions noted are these: two to three weeks, 0, 0.3, 3 and 30 mM tested. The format is in vivo. The method, then:
as §1, with “analyses. Seeds from Solanum esculentum, Hordeum vulgare, Zea mays, Populus tremuloides, Nicotiana tabacum and Arabidopsis thaliana were surface sterilised and grown for two to three weeks on agar media identical to the nitrate free media described above and amended with 0, 0.3, 3 and 30 mM D-serine.” for “analyses.”

In series [6] the test system is Populus tremuloides. The series is described as above. The format is in vivo. Particulars: two to three weeks, 0, 0.3, 3 and 30 mM tested. How it is done:
as §1, with “analyses. Seeds from Solanum esculentum, Hordeum vulgare, Zea mays, Populus tremuloides, Nicotiana tabacum and Arabidopsis thaliana were surface sterilised and grown for two to three weeks on agar media identical to the nitrate free media described above and amended with 0, 0.3, 3 and 30 mM D-serine.” for “analyses.”

In series [7] the test system is Zea mays. Described as above. The series is classed as in vivo. Particulars: two to three weeks, 0, 0.3, 3 and 30 mM tested. The method, then:
as §1, with “analyses. Seeds from Solanum esculentum, Hordeum vulgare, Zea mays, Populus tremuloides, Nicotiana tabacum and Arabidopsis thaliana were surface sterilised and grown for two to three weeks on agar media identical to the nitrate free media described above and amended with 0, 0.3, 3 and 30 mM D-serine.” for “analyses.”

Series [8] concerns Lycopersicon esculentum. The description is as above. The series is classed as in vivo. Particulars: two to three weeks, 0, 0.3, 3 and 30 mM tested. The method, then: as §1, with “analyses. Seeds from Solanum esculentum, Hordeum vulgare, Zea mays, Populus tremuloides, Nicotiana tabacum and Arabidopsis thaliana were surface sterilised and grown for two to three weeks on agar media identical to the nitrate free media described above and amended with 0, 0.3, 3 and 30 mM D-serine.” for “analyses.”

Series [9] has as its system Hordeum vulgare. The series is described as above. Particulars: two to three weeks, 0, 0.3, 3 and 30 mM tested. The series is classed as in vivo. The method, then:
as §1, with “analyses. Seeds from Solanum esculentum, Hordeum vulgare, Zea mays, Populus tremuloides, Nicotiana tabacum and Arabidopsis thaliana were surface sterilised and grown for two to three weeks on agar media identical to the nitrate free media described above and amended with 0, 0.3, 3 and 30 mM D-serine.” for “analyses.”

The subject of series [10] is Somatic embryonic cell suspension cultures of Picea abies. In words: Somatic embryonic cell suspension cultures grown on a range of D-serine concentrations. The conditions noted are these: 0, 0.3, 3 and 30 mM tested. The series is classed as cell-based. The method, then:
Somatic embryonic cell suspension cultures of Picea abies were grown on a range of D-serine concentrations; 0, 0.3, 3 and 30 mM D-serine. D-serine was lethal to cells at and above 3 mM.

The subject of series [11] is Arabidopsis seedlings grown on soil. In words: Selection of transgenic seedlings on soil by spraying D-Serine. The format is in vivo, Arabidopsis thaliana. Particulars: 30 mM sprayed three times during one week.
The test system of series [12] is tobacco transformed with dsdA. Kind of series: Resistance of dsdA-transformed plants to D-Ser. Particulars: in vivo. The text has this:
(§2) Poplar and tobacco were transformed using the same vector and transformation protocol described above for the transformation of Arabidopsis.

Series [13] concerns poplar transformed with dsdA. In words: Resistance of dsdA-transformed plants to D-Ser. Particulars: in vivo.
Text: as §2

Series [14] deals with wild type poplar. Kind of series: Shoot formation on shoot inducing media with D-Ser. The series is classed as in vivo.
The subject of series [15] is dsdA-transformed embryos of Picea abies. Kind of series: Selection of dsdA-transformed embryos on D-serine medium. The series is classed as cell-based. The method, then:
The transformation method used was particle bombardment of a cell suspension. Somatic embryonic cell suspension cultures of Picea abies were grown on a range of D-serine concentrations; 0, 0.3, 3 and 30 mM D-serine. D-serine was lethal to cells at and above 3 mM.

Series [16] concerns wild type tobacco. In words: Shoot formation on shoot inducing media with D-Ser. The series is classed as in vivo.

SMILES strings stand for the structures. Entries after “also recorded” stand apart in the source; their conditions may differ. Some results are limits rather than exact numbers.

Regarding `NC(=O)C[C@@H](N)C(=O)O` [D-Asn], the “growth / germination of D-amino oxidase expressing plants” value in [1] (30 mM, sterile agar culture) is listed as “total inhibition of growth; also recorded: inhibited significantly more than the wild-type”. In [2] (30 mM, sterile agar culture), the “growth of wild type plants” value is reported as “only partially retarded”.

`CC[C@@H](C)[C@@H](N)C(=O)O` [D-ile]: the “hindering of growth of transgenic plants expressing dao1 (compared with D-Asn)” value in series [1] (in vivo) is on record as “even more effective in hindering growth”. Also, in [2] (examined interval 0.3 to 30 mM), the “wild type growth with increasing concentration” value is “increase in growth”. Besides, in series [2] (in vivo), the “inhibitory effect on wild type plants” value is reported as “no visible inhibitory effect”.

For `N[C@H](CO)C(=O)O` [D-serine], in series [3] (3 mM D-serine, ANOVA p<0.0001), the “N concentration of plants compared with plants grown on 3 mM nitrate” value is recorded as “significantly lower”. The “growth and N content of transgenic plants with increasing D-serine concentration” value in [3] (D-serine as sole N source, p<0.0001 (FIG. 4)) is given as “increase significantly”. In addition, the “growth on D-serine compared with nitrate at equal concentration” value in series [3] (FIG. 4(top) and 5(top)) is recorded as “lower growth”. In addition, in [3] (in the presence of a basic level of nitrate (3 mM), p<0.0001 (FIG. 5)), the “growth and nitrogen content of transgenic plants with increasing D-serine concentration” value is reported as “increased significantly”. Moreover, the “toxicity symptoms in transgenic plants” value in series [3] (within the observed range of D-Ser) was “no toxicity symptoms”. For the same compound, in series [1] (in vivo), the “effect of expressed D-amino acid oxidase on toxicity of the D-amino acid” value is on record as “alleviate the toxicity”. For the same compound, the “growth of wild-type plants with increasing D-serine concentration” value in series [4] (D-serine as sole N source, 0.3, 3, 30 mM (FIG. 3)) is reported as “No increase”. The “concentration in the growth medium at which clear growth inhibition is observed” value in series [4] (FIG. 3) was 0.3 mM. In [4] (FIG. 3), the “concentration in the growth medium at which total growth inhibition occurs” value was 3 mM. In addition, the “toxicity to wild-type plants” value is reported as “toxic effect” in series [4] and “shows toxicity” in series [4] (listed as D-ser). Further, the “growth and nitrogen content of wild-type plants with increasing D-serine concentration” value in series [4] (in the presence of a basic level of nitrate (3 mM) (FIG. 5)) is recorded as “opposite response”. Also, the “D-serine concentration in the media at which growth was inhibited” value is given as 3 mM in [4] (nitrate free agar, two to three weeks, 0, 0.3, 3 and 30 mM tested); 3 mM in series [5]; 3 mM in series [6]; 30 mM in series [7]; 3 mM in series [8]; 30 mM in series [9]. Moreover, the “concentration lethal to cells” value in series [10] was not below 3 mM. In addition, the “selection of transgenic plants by spraying” value in series [11] is reported as “Successful selection”. Moreover, the “concentration to which transformed plants were resistant” value in series [12] and in series [13] was “exceeding 30 mM” each time. Moreover, the figures for the “concentration sufficient to stop all shoot formation” value in series [14] and in [16] were 3 mM and 30 mM, respectively. In addition, the “D-serine concentration of medium on which transformed embryos could be selected” value in series [15] was 3 mM.

In the case of `C[C@@H](N)C(=O)O` [D-alanine], the “effect of expressed D-amino acid oxidase on toxicity of the D-amino acid” value in series [1] (in vivo) is given as “alleviate the toxicity”.

The record behind these values is patent US7741540B2, “Compositions comprising D-amino acids” (BASF Plant Science GmbH, priority 2002, dated 2010).
